# In patent US8487001B2, “Medium-chain length fatty acids, glycerides and analogues as neutrophil survival and activation factors” (ProMetic BioSciences Inc., priority 2001, dated 2013):
# How the values were obtained:
# neutrophils (PMN) = experiment: Doxorubicin-induced neutrophil apoptosis, 4 hr incubation with or without MCT; type: cell-based, human
# Description: (§1) PMN were isolated as described in example 10. Cells (2×10^6/ml) were incubated for 4 hr, at 37° C. in 5% CO2 and 95% humidity in the presence of various concentrations of a chemotherapeutic agent, doxorubicin. Apoptotic cells were evaluated as described in example 10. Data are expressed in percent of apoptotic cells.
# as §1, with “doxorubicin with or without MCT (2.5% and 5.0%).” for “a chemotherapeutic agent, doxorubicin.”
# Results are expressed in percent of apoptotic cells after 4 hr of incubation in the presence or the absence of doxorubicin with or without MCT. […] However, in the presence of MCT, at a concentration of 2.5% and 5% (v/v), the apoptotic effects of doxorubicin are inhibited. Thus, MCT exerts an anti-apoptotic action on PMN. Apoptosis was also studied using the annexin V-FITC/PI (propidium iodide) to method according to the manufacturer's Biosources recommendations (Apotarget Annexin-VFITC Apoptosis Kit #PHN 1018). Annexin V binds to phosphatidylserine which is transferred from the internal to external membrane in early to late phase apoptosis. Briefly, neutrophils are incubated in the presence or absence of varying concentrations of doxorubicin and MCT. After 24 hr, neutrophils are washed with PBS and stained with […] of Annexin V-FITC and 10 μl of PI (Sigma, 1 mg/ml) for 20 minutes. After incubation, stained cells were fixed in paraformaldehyde (1%) and analyzed for apoptosis using an XL Flow Cytometer (Coulter). Data were then expressed as the percent of apoptotic cells. FIG. 4A represents a time-course response of MCT on doxorubicin-treated neutrophils.
# [1] = Doxorubicin-induced neutrophil apoptosis, comparison to GM-CSF (% PMN viability); type: cell-based, human; conditions: human
# Text: Table 2 represents the effect of GM-CSF, MCT and tricaprylin on doxorubicin-induced human neutrophil apoptosis.
# B16F10 melanoma = experiment: Antitumor activity in B16F10 melanoma model; type: in vivo, C57BL/6 mice; conditions: FIG. 10; MCT 25 μMole/mouse i.v. day 7, 9, 14, 16; doxorubicin 10 mg/kg day 10 and 17 (sub-therapeutic); day 22
# Description: Female 6-8-week old C57BL/6 mice were injected intravenously on day 0 with 1×10^5 B16F10 melanoma cells from ATCC (source of cell culture, Dr. I. J. Fidler). […] Mice were sacrificed on day 22. Body weight and tumor volume were recorded.
compound,measurement,setting,value
"COc1cccc2c1C(=O)c1c(O)c3c(c(O)c1C2=O)C[C@@](O)(C(=O)CO)C[C@@H]3O[C@H]1C[C@H](N)[C@H](O)[C@H](C)O1 [Doxorubicin, doxorubicin]",% Apoptosis of neutrophils (PMN),"neutrophils (PMN); Experiment 1, doxorubicin 10^-4 M alone (Control, no MCT)",27.5%
same,% Apoptosis of neutrophils (PMN),"neutrophils (PMN); Experiment 1, doxorubicin 10^-5 M alone (Control, no MCT)",23.8%
same,% Apoptosis of neutrophils (PMN),"neutrophils (PMN); Experiment 1, doxorubicin 10^-6 M alone (Control, no MCT)",23.2%
same,% Apoptosis of neutrophils (PMN),"neutrophils (PMN); Experiment 1, doxorubicin 10^-8 M alone (Control, no MCT)",18.7%
same,% Apoptosis of neutrophils (PMN),"neutrophils (PMN); Experiment 1, doxorubicin 10^-10 M alone (Control, no MCT)",9.3%
same,% Apoptosis of neutrophils (PMN),"neutrophils (PMN); Experiment 2, doxorubicin 10^-4 M alone (Control, no MCT)",53.2%
same,% Apoptosis of neutrophils (PMN),"neutrophils (PMN); Experiment 2, doxorubicin 10^-5 M alone (Control, no MCT)",66.2%
same,% Apoptosis of neutrophils (PMN),"neutrophils (PMN); Experiment 2, doxorubicin 10^-6 M alone (Control, no MCT)",55.0%
same,% Apoptosis of neutrophils (PMN),"neutrophils (PMN); Experiment 2, doxorubicin 10^-8 M alone (Control, no MCT)",59.2%
same,% Apoptosis of neutrophils (PMN),"neutrophils (PMN); Experiment 2, doxorubicin 10^-10 M alone (Control, no MCT)",60.6%
same,effect on PMN apoptosis,"neutrophils (PMN); various concentrations of doxorubicin, FIGS. 3A and 3B",induces PMN apoptosis
same,viability,[1],6.82 ± 0.5%
same,reduction of the tumor volume,B16F10 melanoma,around 25%
